Measurements: PubChem BioAssay (NCI)
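Test compounds were applied to cells in 96-well plates for 48 hours at 5 doses. GI50 is the concentration that inhibits growth by half. TGI: total growth inhibition.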

What was measured:
Assay in all cases: NCI anticancer screen, dose series, 48 h
[1] = tested on: 786-0 renal
[2] = tested on: A498 renal
[3] = tested on: A549 NSCLC
[4] = tested on: ACHN renal
[5] = tested on: BT-549 breast
[6] = tested on: CAKI-1 renal
[7] = tested on: CCRF-CEM leukemia
[8] = tested on: COLO 205 colon
[9] = tested on: DU-145 prostate
[10] = tested on: EKVX NSCLC
[11] = tested on: HCC-2998 colon
[12] = tested on: HCT-15 colon
[13] = tested on: HL-60(TB) leukemia
[14] = tested on: HOP-62 NSCLC
[15] = tested on: HOP-92 NSCLC
[16] = tested on: HS 578T breast
[17] = tested on: HT29 colon
[18] = tested on: IGROV1 ovarian
[19] = tested on: K-562 leukemia
[20] = tested on: KM12 colon
[21] = tested on: LOX IMVI melanoma
[22] = tested on: M14 melanoma
[23] = tested on: MALME-3M melanoma
[24] = tested on: MCF7 breast
[25] = tested on: MDA-MB-231 breast
[26] = tested on: MDA-MB-435
[27] = tested on: MOLT-4 leukemia
[28] = tested on: NCI-H226 lung
[29] = tested on: NCI-H23 lung
[30] = tested on: NCI-H460 lung
[31] = tested on: NCI-H522 lung
[32] = tested on: NCI/ADR-RES ovarian
[33] = tested on: OVCAR-3 ovarian
[34] = tested on: OVCAR-4 ovarian
[35] = tested on: OVCAR-5 ovarian
[36] = tested on: OVCAR-8 ovarian
[37] = tested on: PC-3 prostate
[38] = tested on: RPMI-8226 leukemia
[39] = tested on: SF-268 CNS
[40] = tested on: SF-295 CNS
[41] = tested on: SF-539 CNS
[42] = tested on: SK-MEL-2 melanoma
[43] = tested on: SK-MEL-28 melanoma
[44] = tested on: SK-MEL-5 melanoma
[45] = tested on: SK-OV-3 ovarian
[46] = tested on: SN12C renal
[47] = tested on: SNB-19 CNS
[48] = tested on: SR leukemia
[49] = tested on: SW-620 colon
[50] = tested on: T-47D breast
[51] = tested on: TK-10 renal
[52] = tested on: U251 CNS
[53] = tested on: UACC-257 melanoma
[54] = tested on: UACC-62 melanoma
[55] = tested on: UO-31 renal

Question: What does the source list for `Cc1ccc(S(=O)(=O)NCCCNc2nc(Nc3ccc(N4CCN(C)CC4)cc3)nc3ccsc23)cc1`?
Answer: GI50 [1]: 1.77 µM; TGI [1]: 3.42 µM; GI50 [2]: 19.4 µM; TGI [2]: 34.5 µM; GI50 [3]: 14.9 µM; TGI [3]: 31.5 µM; GI50 [4]: 12 µM; TGI [4]: 25.2 µM; GI50 [5]: 3.56 µM; TGI [5]: 16.4 µM; GI50 [6]: 12.8 µM; TGI [6]: 25.5 µM; GI50 [7]: 2.73 µM; TGI [7]: 22.9 µM; GI50 [8]: 13.1 µM; TGI [8]: 29.8 µM; GI50 [9]: 16.4 µM; TGI [9]: 40.6 µM; GI50 [10]: 11.6 µM; TGI [10]: 28.7 µM; GI50 [11]: 5.34 µM; TGI [11]: 17.8 µM; GI50 [12]: 2.07 µM; TGI [12]: 5.54 µM; GI50 [13]: 2.01 µM; TGI [13]: 5.18 µM; GI50 [14]: 14.8 µM; TGI [14]: 30.5 µM; GI50 [15]: 1.94 µM; TGI [15]: 11.6 µM; GI50 [16]: 5.09 µM; TGI [16]: 26.7 µM; GI50 [17]: 4.4 µM; TGI [17]: 18.4 µM; GI50 [18]: 7.35 µM; TGI [18]: 21.8 µM; GI50 [19]: 2.56 µM; TGI [19]: > 100 µM; GI50 [20]: 14.3 µM; TGI [20]: 47.9 µM; GI50 [21]: 1.51 µM; TGI [21]: 3.06 µM; GI50 [22]: 1.6 µM; TGI [22]: 3.13 µM; GI50 [23]: 1.79 µM; TGI [23]: 3.42 µM; GI50 [24]: 3.52 µM; TGI [24]: 13.8 µM; GI50 [25]: 3.92 µM; TGI [25]: 18.7 µM; GI50 [26]: 9.14 µM; TGI [26]: 21.3 µM; GI50 [27]: 3.43 µM; TGI [27]: 28.7 µM; GI50 [28]: 8.46 µM; TGI [28]: 21.8 µM; GI50 [29]: 12.2 µM; TGI [29]: 26.5 µM; GI50 [30]: 13 µM; TGI [30]: 27.8 µM; GI50 [31]: 12.5 µM; TGI [31]: 26.2 µM; GI50 [32]: 15.5 µM; TGI [32]: 41.9 µM; GI50 [33]: 10.2 µM; TGI [33]: 42.1 µM; GI50 [34]: 10.3 µM; TGI [34]: 44.2 µM; GI50 [35]: 11.9 µM; TGI [35]: 25.9 µM; GI50 [36]: 10.9 µM; TGI [36]: 29.7 µM; GI50 [37]: 5.55 µM; TGI [37]: 21.6 µM; GI50 [38]: 2.5 µM; TGI [38]: 8.04 µM; GI50 [39]: 9.87 µM; TGI [39]: 46 µM; GI50 [40]: 9.03 µM; TGI [40]: 21.6 µM; GI50 [41]: 2.16 µM; TGI [41]: 5.78 µM; GI50 [42]: 15.1 µM; TGI [42]: 29 µM; GI50 [43]: 6.5 µM; TGI [43]: 19.4 µM; GI50 [44]: 12.9 µM; TGI [44]: 25.6 µM; GI50 [45]: 27.1 µM; TGI [45]: 77.8 µM; GI50 [46]: 13.6 µM; TGI [46]: 28 µM; GI50 [47]: 15.9 µM; TGI [47]: 32.4 µM; GI50 [48]: 2.84 µM; TGI [48]: > 100 µM; GI50 [49]: 12.5 µM; TGI [49]: 28 µM; GI50 [50]: 13.3 µM; TGI [50]: 37.2 µM; GI50 [51]: 17.7 µM; TGI [51]: 40.3 µM; GI50 [52]: 3.83 µM; TGI [52]: 18.7 µM; GI50 [53]: 2.19 µM; TGI [53]: 5.83 µM; GI50 [54]: 11.5 µM; TGI [54]: 23.6 µM; GI50 [55]: 7.94 µM; TGI [55]: 23.8 µM
